Literature values as cited in patent US8501717B2, “Methods to treat and/or prevent mucositis” (Merck, Sharp & Dohme Corp., priority 2007, dated 2013).

Conditions: less than the effect of an equal dose of calcitriol

C=C1/C(=C\C=C2/CCC[C@]3(C)C([C@H](C)CC#CC(C)(C)O)=CC[C@@H]23)C[C@@H](O)C[C@@H]1O [Ro23-7553]
hypercalcemic effect compared to calcitriol (in words): reduced hypercalcemic effect
